Assay results: patent publication US20130130992A1, “DIPEPTIDE DERIVATIVE FOR THE TREATMENT OF CANCER” (ONCOTEST GMBH, priority 2010, published 2013)

What was measured:
Type in all cases: cell-based
[1] = tested on: RXF 486L; experiment: Monolayer propidium iodide assay, RXF 486L; conditions: Homo sapiens, 96 h, Renal, 4 days of treatment
Source text: (§1) Oncotest GmbH, Germany's proprietary tumor cell line panel comprises 40 cell lines. These cell lines were derived from 15 different tumor histotypes, each represented by 1 to 6 different cell lines. Cell lines were established from cancer of the bladder (3), colon (4), head and neck (1), lung (6), breast (3), pancreas (3), prostate (4), ovary (2), kidney (3), liver (1), stomach (1) and the uteri body (1), as well as from melanoma (3), sarcoma (2) and pleuramesothelioma (3). Out of these 40 cell lines, 24 cell lines were established at Oncotest, from patient-derived tumor xenografts. […]
(§2) Stock solutions of the compound of formula (1) (3.3 mM in DMSO) were prepared and stored in small aliquots (200 μl) at −20° C. […] Each concentration was evaluated in triplicate. […]
(§3) Cells were plated in 96-well flat-bottom microtiter plates at a cell density of 4,000 to 20,000 cells/well. […] After an incubation period of 1-2 hours at room temperature, fluorescence (FU) was measured using the Cytofluor 4000 microplate reader (excitation λ=530 nm, emission λ=620 nm) to quantify the amount of attached viable cells. […] Based on the T/C values, relative IC50 values were determined by non-linear regression (log [conc. of inhibitor] versus response (% T/C)) using the GraphPad Prism® analysis software (Prism 5 for Windows, version 5.01, GraphPad Software Inc., CA). […]

[2] = tested on: PXF 1752L; experiment: Monolayer propidium iodide assay, PXF 1752L; conditions: Homo sapiens, 96 h, Pleuramesothelioma, 4 days of treatment
Source text: as §1, §2, §3

[3] = tested on: GXF 251 L; experiment: Monolayer propidium iodide assay, GXF 251 L; conditions: Homo sapiens, 96 h, Gastric, 4 days of treatment
Source text: as §1, §2, §3

[4] = tested on: CXF 269L; experiment: Monolayer propidium iodide assay, CXF 269L; conditions: Homo sapiens, 96 h, Colon, 4 days of treatment
Source text: as §1, §2, §3

[5] = tested on: LXFL 529L; experiment: Monolayer propidium iodide assay, LXFL 529L; conditions: Homo sapiens, 96 h, Lung, 4 days of treatment
Source text: as §1, §2, §3

[6] = tested on: MAXF MCF 7; experiment: Monolayer propidium iodide assay, MAXF MCF 7; conditions: Homo sapiens, MCF7, 96 h; MAXF MCF 7, Mammary; 4 days of treatment
Source text: as §1, §2, §3

[7] = tested on: LXFA 289L; experiment: Monolayer propidium iodide assay, LXFA 289L; conditions: Homo sapiens, 96 h, Lung, 4 days of treatment
Source text: as §1, §2, §3

[8] = tested on: PRXF DU 145; experiment: Monolayer propidium iodide assay, PRXF DU 145; conditions: Homo sapiens, 96 h; PRXF DU 145, Prostate; 4 days of treatment
Source text: as §1, §2, §3

[9] = tested on: BXF T 24; experiment: Monolayer propidium iodide assay, BXF T 24; conditions: Homo sapiens, 96 h; BXF T 24, Bladder; 4 days of treatment
Source text: as §1, §2, §3

[10] = tested on: OVXF 899L; experiment: Monolayer propidium iodide assay, OVXF 899L; conditions: Homo sapiens, 96 h, Ovarian, 4 days of treatment
Source text: as §1, §2, §3

[11] = tested on: MEXF 462NL; experiment: Monolayer propidium iodide assay, MEXF 462NL; conditions: Homo sapiens, 96 h, Melanoma, 4 days of treatment
Source text: as §1, §2, §3

[12] = tested on: BXF 1218L; experiment: Monolayer propidium iodide assay, BXF 1218L; conditions: Homo sapiens, 96 h, Bladder, 4 days of treatment
Source text: as §1, §2, §3

[13] = tested on: MEXF 276L; experiment: Monolayer propidium iodide assay, MEXF 276L; conditions: Homo sapiens, MEXF276L, 96 h, Melanoma, 4 days of treatment
Source text: as §1, §2, §3

[14] = tested on: PRXF 22RV1; experiment: Monolayer propidium iodide assay, PRXF 22RV1; conditions: Homo sapiens, 96 h; PRXF 22RV1, Prostate; 4 days of treatment
Source text: as §1, §2, §3

[15] = tested on: PAXF PANC 1; experiment: Monolayer propidium iodide assay, PAXF PANC 1; conditions: Homo sapiens, 96 h; PAXF PANC 1, Pancreas; 4 days of treatment
Source text: as §1, §2, §3

CCCC1CCCCCC(O)CC(=O)NC2CSSCC(NC2=O)C(=O)O1 (stereo not drawn) [compound of formula (1)]
IC50 [1]: 0.159 µM | IC50 [2]: 0.187 µM | IC50 [3]: 0.093 µM | IC50 [4]: 0.055 µM | IC50 [5]: 0.05 µM | IC50 [6]: 0.276 µM | IC50 [7]: 0.041 µM | IC50 [8]: 0.052 µM | IC50 [9]: 0.05 µM | IC50 [10]: 0.301 µM | IC50 [11]: 0.149 µM | IC50 [12]: 0.046 µM | IC50 [13]: 0.09 µM | IC50 [14]: 0.159 µM | IC50 [15]: 0.059 µM
